Columns and labels:
[1] = target: T1, cytosolic phospholipase A2 (Homo sapiens, UniProt P47712); test: Inhibition of cytosolic phospholipase A2 in intact human platelets stimulated with calcium ionophor A23187 (arachidonic acid release, HPLC); format: cell-based; conditions: concentration of 10 μM, calcium ionophor A23187 stimulation, one collective range for the six compounds, read-out: inhibited the activity of cytosolic phospholipase A2
T1 construct: endogenous in cells; host or cells: intact human platelets (thrombocytes)
T1 sequence (P47712 1-749): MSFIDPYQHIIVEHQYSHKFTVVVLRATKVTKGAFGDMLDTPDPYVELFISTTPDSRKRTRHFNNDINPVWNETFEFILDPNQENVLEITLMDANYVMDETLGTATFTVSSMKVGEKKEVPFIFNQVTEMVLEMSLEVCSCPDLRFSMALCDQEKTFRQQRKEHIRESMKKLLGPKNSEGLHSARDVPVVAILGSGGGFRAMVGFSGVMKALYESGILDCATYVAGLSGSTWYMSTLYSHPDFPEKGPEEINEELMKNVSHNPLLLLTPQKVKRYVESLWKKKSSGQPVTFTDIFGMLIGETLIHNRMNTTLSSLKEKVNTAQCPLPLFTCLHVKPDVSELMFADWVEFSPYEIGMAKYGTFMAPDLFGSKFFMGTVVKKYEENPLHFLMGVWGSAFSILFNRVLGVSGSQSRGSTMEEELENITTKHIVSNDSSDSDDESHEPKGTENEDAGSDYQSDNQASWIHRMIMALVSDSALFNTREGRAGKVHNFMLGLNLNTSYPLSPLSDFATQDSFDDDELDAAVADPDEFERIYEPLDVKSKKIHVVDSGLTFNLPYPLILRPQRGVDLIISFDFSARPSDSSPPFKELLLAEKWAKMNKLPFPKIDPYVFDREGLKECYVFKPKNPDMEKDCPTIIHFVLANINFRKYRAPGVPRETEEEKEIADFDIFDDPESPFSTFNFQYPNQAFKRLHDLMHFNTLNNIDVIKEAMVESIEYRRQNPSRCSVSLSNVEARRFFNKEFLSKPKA
From the text: The effectiveness of the compounds according to the invention can be determined by the inhibition of cytosolic phospholipase A2. To this end, cytosolic phospholipase A2 is stimulated in intact human thrombocytes with calcium ionophor A23187 so as to trigger the release of arachidonic acid from the membrane phospholipids. In order to prevent the metabolization of the enzyme product arachidonic acid via the cyclooxygenase route and the 12-lipoxygenase route, the dual cyclooxygenase/12-lipoxygenase-inhibitor 5,8,11,14-eicosatetraynoic acid is added. Following purification by means of solid phase extraction, the released arachidonic acid is determined by reversed phase-HPLC using U.V. detection. The inhibition of the enzyme by a test substance follows from the ratio of the arachidonic acid amounts formed in the presence or absence of the test substance. More detailed information on the test system is made in Example 10.
The effectiveness of the compounds according to the invention can be determined by the inhibition of cytosolic phospholipase A2. The test method used was described earlier (Lehr M. et al., Arch. Pharm. Pharm. Med. Chem. 2000, 333, 312-314). Here, the arachidonic acid formed by cytosolic phospholipase A2 in intact human platelets following stimulation using calcium ionophor A23187 is detected in the presence and absence of test substances.

Structure (SMILES): CCCCCCCCc1ccc(OCC(=O)Cn2ccc(C(=O)O)c2)cc1 [Example 6, 1-[3-(4-Octylphenoxy)-2-oxopropyl]pyrrole-3-carboxylic acid]
- inhibition at 10 µM [1]: 40 to 95%

Structure (SMILES): CCCCCCCCc1ccc(OCC(=O)Cn2ccc3cc(OC)ccc32)cc1 [Example 14, 1-(5-Methoxyindol-1-yl)-3-(4-octylphenoxy)propan-2-one]
- melting point: 85 °C

Structure (SMILES): CCCCCCCCc1ccc(OCC(=O)Cn2cccc2C(=O)O)cc1 [Example 5, 1-[3-(4-Octylphenoxy)-2-oxopropyl]pyrrol-2-carboxylic acid]
- inhibition at 10 µM [1]: 40 to 95%
- melting point: 157 °C (dec.)

Structure (SMILES): CCCCCCCCc1ccc(OCC(=O)Cn2ncc3ccccc32)cc1
- melting point: 66 to 67 °C

Structure (SMILES): CCCCCCCCc1ccc(OCC(=O)Cn2cccn2)cc1 [Example 2, 1-(4-Octylphenoxy)-3-(pyrazol-1-yl)propan-2-one]
- inhibition at 10 µM [1]: 40 to 95%

Structure (SMILES): CCCCCCCCc1ccc(OCC(=O)Cn2ccc3ccccc32)cc1
- melting point: 65 °C

Structure (SMILES): CCCCCCCCc1ccc(OCC(=O)Cn2ccc3cc(C#N)ccc32)cc1 [Example 15, 1-(3-(4-Octylphenoxy)-2-oxopropyl]indole-5-carbonitrile]
- melting point: 96 °C

Structure (SMILES): CCCCCCCCc1ccc(OCC(=O)Cn2cc(C(=O)O)c3ccccc32)cc1 [Example 8, 1-[3-(4-Octylphenoxy)-2-oxopropyl]indole-3-carboxylic acid]
- inhibition at 10 µM [1]: 40 to 95%
- melting point: 182 to 183 °C

Structure (SMILES): CCCCCCCOc1ccc(OCC(=O)Cn2ccc3cc(C(N)=O)ccc32)cc1 [Example 26, 1-[3-(4-Heptyloxyphenoxy)-2-oxopropyl]indole-5-carbamide]
- melting point: 114 °C

Structure (SMILES): CCCCCCCCc1ccc(OCC(=O)Cn2cc(C(C)(C)C)c3cc(C(=O)O)ccc32)cc1 [Example 18, 3-tert-Butyl-1-[3-(4-octylphenoxy)-2-oxopropyl]indole-5-carboxylic acid]
- melting point: 146 to 147 °C

Structure (SMILES): CCCCCCCCc1ccc(OCC(=O)Cn2cc(C(C)(C)C)c3ccc(C(=O)O)cc32)cc1 [Example 23, 3-tert-Butyl-1-[3-(4-octylphenoxy)-2-oxopropyl]indole-6-carboxylic acid]
- melting point: 145 to 146 °C

Structure (SMILES): CCCCCCCCc1ccc(OCC(=O)Cn2cc(C=O)c3cc(C(=O)O)ccc32)cc1
- melting point: 193 °C

Structure (SMILES): CCCCCCCn1ccc2cc(OCC(=O)Cn3ccc4cc(C(N)=O)ccc43)ccc21 [Example 30, 1-[3-(1-Heptylindol-5-yloxy)-2-oxopropyl]indole-5-carbamide]
- melting point: 171 °C

Structure (SMILES): CCCCCCCCc1ccc(OCC(=O)Cn2cccc2)cc1
- melting point: 58 to 59 °C

Structure (SMILES): CCCCCCCCc1ccc(OCC(=O)Cn2c(C(=O)O)cc3ccccc32)cc1 [Example 7, 1-[3-(4-Octylphenoxy)-2-oxopropyl]indole-2-carboxylic acid]
- inhibition at 10 µM [1]: 40 to 95%
- melting point: 173 °C

Structure (SMILES): CCCCCCCCc1ccc(OCC(=O)Cn2cc(Cl)c3cc(C(=O)O)ccc32)cc1 [Example 19, 3-Chloro-1-[3-(4-octylphenoxy)-2-oxopropyl]indole-5-carboxylic acid]
- melting point: 157 °C

Structure (SMILES): CCCCCCCCc1ccc(OCC(=O)Cn2cc(C(C)=O)c3cc(C(=O)O)ccc32)cc1
- melting point: 197 °C

Structure (SMILES): CCCCCCCCc1ccc(OCC(=O)Cn2ccc3cc(Cl)ccc32)cc1 [Example 13, 1-(5-Chloroindol-1-yl)-3-(4-octylphenoxy)propan-2-one]
- melting point: 77 °C

Structure (SMILES): CCCCCCCCc1ccc(OCC(=O)Cn2cc(C(=O)OC)c3cc(C(=O)O)ccc32)cc1
- melting point: 208 °C

Structure (SMILES): CCCCCCCCc1ccc(OCC(=O)Cn2ccc3cc(C(=O)O)ccc32)cc1 [Example 9, 1-[3-(4-Octylphenoxy)-2-oxopropyl]indole-5-carboxylic acid]
- inhibition at 10 µM [1]: 40 to 95%

Structure (SMILES): CCCCCCCCc1ccc(OCC(=O)Cn2ccc3cc(C(=O)OC)ccc32)cc1 [Example 17, Methyl-1-(3-(4-octylphenoxy)-2-oxopropyl]indole-5-carboxylate]
- melting point: 118 °C

Structure (SMILES): CCCCCCCCc1ccc(OCC(=O)Cn2ccc3cc(C=O)ccc32)cc1 [Example 16, 1-[3-(4-Octylphenoxy)-2-oxopropyl]indole-5-carbaldehyde]
- melting point: 96 °C

Reference: US7608633B2, “Heteroaryl-substituted acetone derivatives as inhibitors of phospholipase A2” (Merckle GmbH, priority 2003, dated 2009)
